# Measured values from patent publication EP1181935A2, “Agent for treating mental disorders associated with cerebrovascular disorders” (SUMITOMO PHARMACEUTICALS COMPANY, LIMITED, priority 1995, dated 1996).
# Where a name gives a salt, the structure may show the parent alone.
# System: patients with cerebral infarction or hemorrhage accompanied by various mental disorders
# Assay: Clinical trial of SM-9018 for mental disorders associated with cerebrovascular disorders
# Assay type: in vivo
# Conditions: 8 weeks
# Description: Examination 1 Clinical trial of SM-9018 for mental disorders associated with cerebrovascular disorders.
# SM-9018 was administered to patients with cerebral infarction or hemorrhage accompanied by various mental disorders described above to examine whether the mental disorders will be improved or not.
# One mg/dosage of SM-9018 was orally administered once (Step I), twice (Step II) or 3 times a day (Step III) for up to 2 weeks after the administration was started and, when the treatment was effective, administration thereof was continued.
# [2] Administration periods: 8 weeks
# Improvement of the mental disorders was evaluated by categorizing into 4 grades: i.e. 1) "excellent", 2) "moderate", 3) "slight", or 4) "unchanged" or other. Among the results obtained, "the number of patients categorized to 1) + 2) divided by the number of patients tested" for each symptom is summarized in the following Tables 1 to 3.
# [1] = Step I: 1 mg orally once a day (increased to 1 mg x 2 times/day if no effect)
# [2] = Step I: 1 mg orally once a day (increased to 1 mg x 2 times/day if no effect), 35 patients examined
# [3] = Step II: 1 mg orally twice a day (increased to 2 mg x 2 times/day if no effect)
# [4] = Step II: 1 mg orally twice a day (increased to 2 mg x 2 times/day if no effect), 28 patients examined
# [5] = Step III: 1 mg orally 3 times a day (increased to 2 mg x 3 times/day if no effect)
# [6] = Step III: 1 mg orally 3 times a day (increased to 2 mg x 3 times/day if no effect), 20 patients examined
smiles,measurement,setting,value
"O=C1[C@H]2CCCC[C@H]2C(=O)N1CCCCN1CCN(c2nsc3ccccc23)CC1 [SM-9018, N-[4-[4-(1,2-benzisothiazol-3-yl)-1-piperazinyl]butyl]-1,2-cis-cyclohexandicarboxyimide hydrochloride]",Aggressive behavior: number of patients categorized to 1) + 2) divided by the number of patients tested,[1],2/7
same,Anxiety: number of patients categorized to 1) + 2) divided by the number of patients tested,[1],3/22
same,Bad humor: number of patients categorized to 1) + 2) divided by the number of patients tested,[1],4/18
same,Delirium: number of patients categorized to 1) + 2) divided by the number of patients tested,[1],1/4
same,Depressive mood: number of patients categorized to 1) + 2) divided by the number of patients tested,[1],4/25
same,Emotional incontinence: number of patients categorized to 1) + 2) divided by the number of patients tested,[1],2/13
same,Emotional tension: number of patients categorized to 1) + 2) divided by the number of patients tested,[1],2/18
same,Fugue: number of patients categorized to 1) + 2) divided by the number of patients tested,[1],1/6
same,Irritability: number of patients categorized to 1) + 2) divided by the number of patients tested,[1],4/25
same,Mental excitement: number of patients categorized to 1) + 2) divided by the number of patients tested,[1],2/14
same,Reduced expression of desires: number of patients categorized to 1) + 2) divided by the number of patients tested,[1],3/29
same,Reduced initiative in activities: number of patients categorized to 1) + 2) divided by the number of patients tested,[1],3/30
same,"Reduced interest in housework, amusement, pastime and the like: number of patients categorized to 1) + 2) divided by the number of patients tested",[1],4/31
same,Reduced positiveness to an influence: number of patients categorized to 1) + 2) divided by the number of patients tested,[1],5/30
same,Total emotional disorders: number of patients categorized to 1) + 2) divided by the number of patients tested,[1],8/33
same,Total loss of spontaneity: number of patients categorized to 1) + 2) divided by the number of patients tested,[1],4/32
same,Total problem behavior: number of patients categorized to 1) + 2) divided by the number of patients tested,[1],2/18
same,"patients with some improvement of mental disorders, including those judged as ""slight"" (global evaluation)",[1],about 77%
same,Final global improvement rating: Excellent (number of patients),[2],2
same,Final global improvement rating: Moderate (number of patients),[2],5
same,Final global improvement rating: Slight (number of patients),[2],20
same,Aggressive behavior: number of patients categorized to 1) + 2) divided by the number of patients tested,[3],3/4
same,Anxiety: number of patients categorized to 1) + 2) divided by the number of patients tested,[3],4/23
same,Bad humor: number of patients categorized to 1) + 2) divided by the number of patients tested,[3],9/21
same,Delirium: number of patients categorized to 1) + 2) divided by the number of patients tested,[3],2/5
same,Depressive mood: number of patients categorized to 1) + 2) divided by the number of patients tested,[3],8/23
same,Emotional incontinence: number of patients categorized to 1) + 2) divided by the number of patients tested,[3],3/13
same,Emotional tension: number of patients categorized to 1) + 2) divided by the number of patients tested,[3],3/18
same,Fugue: number of patients categorized to 1) + 2) divided by the number of patients tested,[3],1/3
same,Irritability: number of patients categorized to 1) + 2) divided by the number of patients tested,[3],5/19
same,Mental excitement: number of patients categorized to 1) + 2) divided by the number of patients tested,[3],4/10
same,Reduced expression of desires: number of patients categorized to 1) + 2) divided by the number of patients tested,[3],5/23
same,Reduced initiative in activities: number of patients categorized to 1) + 2) divided by the number of patients tested,[3],5/26
same,"Reduced interest in housework, amusement, pastime and the like: number of patients categorized to 1) + 2) divided by the number of patients tested",[3],6/27
same,Reduced positiveness to an influence: number of patients categorized to 1) + 2) divided by the number of patients tested,[3],6/23
same,Total emotional disorders: number of patients categorized to 1) + 2) divided by the number of patients tested,[3],11/28
same,Total loss of spontaneity: number of patients categorized to 1) + 2) divided by the number of patients tested,[3],8/27
same,Total problem behavior: number of patients categorized to 1) + 2) divided by the number of patients tested,[3],5/10
same,"patients with some improvement of mental disorders, including those judged as ""slight"" (global evaluation)",[3],about 75%
same,Final global improvement rating: Excellent (number of patients),[4],3
same,Final global improvement rating: Moderate (number of patients),[4],10
same,Final global improvement rating: Slight (number of patients),[4],8
same,Aggressive behavior: number of patients categorized to 1) + 2) divided by the number of patients tested,[5],2/5
same,Anxiety: number of patients categorized to 1) + 2) divided by the number of patients tested,[5],6/19
same,Bad humor: number of patients categorized to 1) + 2) divided by the number of patients tested,[5],6/16
same,Delirium: number of patients categorized to 1) + 2) divided by the number of patients tested,[5],1/4
same,Depressive mood: number of patients categorized to 1) + 2) divided by the number of patients tested,[5],6/18
same,Emotional incontinence: number of patients categorized to 1) + 2) divided by the number of patients tested,[5],2/10
same,Emotional tension: number of patients categorized to 1) + 2) divided by the number of patients tested,[5],5/15
same,Fugue: number of patients categorized to 1) + 2) divided by the number of patients tested,[5],0/3
same,Irritability: number of patients categorized to 1) + 2) divided by the number of patients tested,[5],5/16
same,Mental excitement: number of patients categorized to 1) + 2) divided by the number of patients tested,[5],3/8
same,Reduced expression of desires: number of patients categorized to 1) + 2) divided by the number of patients tested,[5],3/16
same,Reduced initiative in activities: number of patients categorized to 1) + 2) divided by the number of patients tested,[5],6/17
same,"Reduced interest in housework, amusement, pastime and the like: number of patients categorized to 1) + 2) divided by the number of patients tested",[5],8/16
same,Reduced positiveness to an influence: number of patients categorized to 1) + 2) divided by the number of patients tested,[5],3/17
same,Total emotional disorders: number of patients categorized to 1) + 2) divided by the number of patients tested,[5],10/20
same,Total loss of spontaneity: number of patients categorized to 1) + 2) divided by the number of patients tested,[5],9/18
same,Total problem behavior: number of patients categorized to 1) + 2) divided by the number of patients tested,[5],3/10
same,"patients with some improvement of mental disorders, including those judged as ""slight"" (global evaluation)",[5],about 80%
same,Final global improvement rating: Excellent (number of patients),[6],6
same,Final global improvement rating: Moderate (number of patients),[6],7
same,Final global improvement rating: Slight (number of patients),[6],3
